Results as given in patent publication US9113629B2, “4-amino-6-(4-substituted-phenyl)-picolinates and 6-amino-2-(4-substituted-phenyl)-pyrimidine-4-carboxylates and their use as herbicides” (DOW AGROSCIENCES LLC, priority 2013, dated 2015).

Legend:
Experiment in all cases: Post-emergent Test III, herbicidal activity in wheat and barley
Type in all cases: in vivo
[1] = test system: CIRAR: Canada thistle (Cirsium arvense); details: Table 8, 21 d; for pest or weed control at 35 g/ha / pest or weed control at 70 g/ha: Cirsium arvense, post-emergence, 504 h, post-emergent, read-out: Visual Growth Reduction (%) 21 Days After Application CIRAR; for pest or weed control at 35 g/ha: 35 g ai/ha; for pest or weed control at 70 g/ha: 70 g ai/ha; for GR50 CIRAR: dose for 50 percent growth reduction; for GR50 CIRAR / GR80 CIRAR: probit analysis; for GR80 CIRAR: dose for 80 percent growth reduction
Procedure, shortened: (§1)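 Plants at the second to third true-leaf stage, grown in a greenhouse at about 18/17 °C with a 14 h photoperiod, were sprayed post-emergence at 187 L/ha with the high rate and ½× to 1/16× serial dilutions in an acetone/DMSO/crop-oil/surfactant carrier. Injury was rated visually at 21 d on a 0–100% scale, and GR20–GR90 were derived by probit analysis.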

[2] = test system: GALAP: cleavers (Galium aparine); details: Table 8, 21 d; for pest or weed control at 35 g/ha / pest or weed control at 70 g/ha: Galium aparine, post-emergence, 504 h, post-emergent, read-out: Visual Growth Reduction (%) 21 Days After Application GALAP; for pest or weed control at 35 g/ha: 35 g ai/ha; for pest or weed control at 70 g/ha: 70 g ai/ha; for GR50 GALAP: dose for 50 percent growth reduction; for GR50 GALAP / GR80 GALAP: probit analysis; for GR80 GALAP: dose for 80 percent growth reduction
Procedure, shortened: as §1

[3] = test system: SASKR: Russian thistle (Salsola iberica); details: Table 8, 21 d; for pest or weed control at 35 g/ha / pest or weed control at 70 g/ha: Salsola tragus, post-emergence, 504 h, post-emergent, read-out: Visual Growth Reduction (%) 21 Days After Application SASKR; for pest or weed control at 35 g/ha: 35 g ai/ha; for pest or weed control at 70 g/ha: 70 g ai/ha; for GR50 SASKR: dose for 50 percent growth reduction; for GR50 SASKR / GR80 SASKR: probit analysis; for GR80 SASKR: dose for 80 percent growth reduction
Procedure, shortened: as §1

[4] = test system: VIOSS: wild pansy (Viola tricolor), field violet (Viola arvensis); details: Table 8, 21 d; for GR50 VIOSS: dose for 50 percent growth reduction; for GR50 VIOSS / GR80 VIOSS: probit analysis; for GR80 VIOSS: dose for 80 percent growth reduction; for pest or weed control at 35 g/ha / pest or weed control at 70 g/ha: Viola tricolor, post-emergence, 504 h, post-emergent, read-out: Visual Growth Reduction (%) 21 Days After Application VIOSS; for pest or weed control at 35 g/ha: 35 g ai/ha; for pest or weed control at 70 g/ha: 70 g ai/ha
Procedure, shortened: as §1

[5] = test system: PHAMI: lesser canary grass (Phalaris minor); details: for pest or weed control at 35 g/ha / pest or weed control at 70 g/ha / pest or weed control at 140 g/ha: Phalaris minor, post-emergence, 504 h, read-out: Visual Growth Reduction (%) 21 Days After Application PHAMI; for pest or weed control at 35 g/ha: 35 g ai/ha; for pest or weed control at 70 g/ha: 70 g ai/ha; for pest or weed control at 140 g/ha: 140 g ai/ha; for GR50 PHAMI / GR80 PHAMI: probit analysis, 21 days after application; for GR50 PHAMI: dose for growth reduction of 50 percent; for GR80 PHAMI: dose for growth reduction of 80 percent
Procedure, shortened: as §1

[6] = test system: STEME: common chickweed (Stellaria media); details: for pest or weed control at 35 g/ha / pest or weed control at 70 g/ha / pest or weed control at 140 g/ha: Stellaria media, post-emergence, 504 h, read-out: Visual Growth Reduction (%) 21 Days After Application STEME; for pest or weed control at 35 g/ha: 35 g ai/ha; for pest or weed control at 70 g/ha: 70 g ai/ha; for pest or weed control at 140 g/ha: 140 g ai/ha; for GR50 STEME / GR80 STEME: probit analysis, 21 days after application; for GR50 STEME: dose for growth reduction of 50 percent; for GR80 STEME: dose for growth reduction of 80 percent
Procedure, shortened: as §1

Row | Structure (SMILES) | pest or weed control at 35 g/ha [1] | pest or weed control at 70 g/ha [1] | GR50 CIRAR [1] | GR80 CIRAR [1] | pest or weed control at 35 g/ha [2] | pest or weed control at 70 g/ha [2] | GR50 GALAP [2] | GR80 GALAP [2] | pest or weed control at 35 g/ha [3] | pest or weed control at 70 g/ha [3] | GR50 SASKR [3] | GR80 SASKR [3] | GR50 VIOSS [4] | GR80 VIOSS [4] | pest or weed control at 35 g/ha [4] | pest or weed control at 70 g/ha [4] | pest or weed control at 35 g/ha [5] | pest or weed control at 70 g/ha [5] | pest or weed control at 140 g/ha [5] | GR50 PHAMI [5] | also measured
1 | Nc1cc(-c2cc(F)c(Br)cc2F)nc(C(=O)O)c1Cl [Compound 3] | 60 to 74% | 75 to 84% | 18 g ai/ha | 53 g ai/ha | 95 to 100% | 95 to 100% | 5 g ai/ha | 7 g ai/ha | 75 to 84% | 85 to 94% | 2 g ai/ha | 28 g ai/ha | 4 g ai/ha | 7 g ai/ha | 95 to 100% | 95 to 100% | – | – | – | – | –
2 | COC(=O)c1nc(-c2ccc(I)c(F)c2)nc(N)c1OC [Compound 27, Methyl 6-amino-2-(3-fluoro-4-iodophenyl)-5-methoxypyrimidine-4-carboxylate] | 75 to 84% | 75 to 84% | 18 g ai/ha | 70 g ai/ha | 85 to 94% | 85 to 94% | 5 g ai/ha | 25 g ai/ha | 60 to 74% | 60 to 74% | 22 g ai/ha | 116 g ai/ha | 8 g ai/ha | 27 g ai/ha | 75 to 84% | 95 to 100% | – | – | – | – | –
3 | COc1c(N)nc(-c2ccc(I)c(F)c2)nc1C(=O)O [Compound 37, 6-Amino-2-(3-fluoro-4-iodophenyl)-5-methoxypyrimidine-4-carboxylic acid] | 45 to 59% | 75 to 84% | 23 g ai/ha | 103 g ai/ha | 85 to 94% | 95 to 100% | 14 g ai/ha | 31 g ai/ha | 45 to 59% | 60 to 74% | 33 g ai/ha | 104 g ai/ha | 12 g ai/ha | 35 g ai/ha | 75 to 84% | 85 to 94% | – | – | – | – | –
4 | Nc1c(Cl)c(C(=O)O)nc(-c2ccc(Br)c(F)c2)c1Cl [Compound 43, 4-Amino-6-(4-bromo-3-fluorophenyl)-3,5-dichloropicolinic acid] | 85 to 94% | 85 to 94% | 0 g ai/ha | 13 g ai/ha | 95 to 100% | 95 to 100% | 2 g ai/ha | 6 g ai/ha | 75 to 84% | 75 to 84% | 3 g ai/ha | 61 g ai/ha | 37 g ai/ha | >140 g ai/ha | 45 to 59% | 60 to 74% | – | – | – | – | –
5 | COC(=O)c1nc(-c2ccc(I)c(F)c2)c(C)c(N)c1Cl [Compound 79, Methyl 4-amino-3-chloro-6-(3-fluoro-4-iodophenyl)-5-methylpicolinate] | 95 to 100% | 95 to 100% | 1 g ai/ha | 5 g ai/ha | 95 to 100% | 95 to 100% | 4 g ai/ha | 6 g ai/ha | 75 to 84% | 85 to 94% | 11 g ai/ha | 43 g ai/ha | >140 g ai/ha | >140 g ai/ha | 0 to 29% | 0 to 29% | – | – | – | – | –
6 | COC(=O)c1nc(-c2ccc(I)cc2)c(F)c(N)c1Cl [Compound 118, Methyl 4-amino-6-(4-iodophenyl)-3-chloro-5-fluoropicolinate] | – | – | – | – | – | – | – | – | – | – | – | – | – | – | – | – | 0 to 29% | 60 to 74% | 75 to 84% | 68 g ai/ha | GR80 PHAMI [5]: 126 g ai/ha; pest or weed control at 35 g/ha [6]: 30 to 44%; pest or weed control at 70 g/ha [6]: 30 to 44%; pest or weed control at 140 g/ha [6]: 30 to 44%; GR50 STEME [6]: 1 g ai/ha; GR80 STEME [6]: 1 g ai/ha
7 | COC(=O)c1nc(-c2ccc(Br)cc2)c(F)c(N)c1Cl [Compound 138, Methyl 4-amino-6-(4-bromophenyl)-3-chloro-5-fluoropicolinate] | – | – | – | – | – | – | – | – | – | – | – | – | – | – | – | – | 45 to 59% | 75 to 84% | 85 to 94% | 31 g ai/ha | GR80 PHAMI [5]: 78 g ai/ha; pest or weed control at 35 g/ha [6]: 30 to 44%; pest or weed control at 70 g/ha [6]: 30 to 44%; pest or weed control at 140 g/ha [6]: 45 to 59%; GR50 STEME [6]: 125 g ai/ha; GR80 STEME [6]: >140 g ai/ha
8 | COC(=O)c1nc(-c2ccc(C#N)cc2)c(F)c(N)c1Cl [Compound 142] | – | – | – | – | – | – | – | – | – | – | – | – | – | – | – | – | 0 to 29% | 0 to 29% | 0 to 29% | >140 g ai/ha | GR80 PHAMI [5]: >140 g ai/ha; pest or weed control at 35 g/ha [6]: 0 to 29%; pest or weed control at 70 g/ha [6]: 0 to 29%; pest or weed control at 140 g/ha [6]: 0 to 29%; GR50 STEME [6]: >140 g ai/ha; GR80 STEME [6]: >140 g ai/ha
9 | Nc1c(F)c(-c2ccc(OC(F)F)cc2)nc(C(=O)O)c1Cl [Compound 143] | – | – | – | – | – | – | – | – | – | – | – | – | – | – | – | – | 0 to 29% | 30 to 44% | 60 to 74% | 112 g ai/ha | GR80 PHAMI [5]: >140 g ai/ha; pest or weed control at 35 g/ha [6]: 0 to 29%; pest or weed control at 70 g/ha [6]: 0 to 29%; pest or weed control at 140 g/ha [6]: 0 to 29%; GR50 STEME [6]: >140 g ai/ha; GR80 STEME [6]: >140 g ai/ha
